# Reference: US9597342B2 (UWM Research Foundation, Inc., priority 2011, dated 2017)
# Marks after values point to notes of the source that are not given here.
# Assays:
# [1] = Incubation with heat-inactivated human liver microsomes (stability control); conditions: 60 min
# Protocol: (§1) The test articles were incubated at two concentrations (1 and 10 μM) in 96-well plate format with active or heat-inactivated human liver microsomes and cofactors. Aliquots were removed at 0, 15, 30 and 60 minutes and mixed with acetonitrile containing internal standard for analysis. Samples were extracted and assayed using a liquid chromatography/tandem mass spectrometry (LC-MS/MS) analytical method.
# (§2) The test articles (1 and 10 μM) were incubated with human liver microsomes (0.5 mg protein/ml) and appropriate cofactors (2.5 mM NADPH and 3.3 mM magnesium chloride) in 100 mM phosphate buffer, pH 7.4 (0.1% final DMSO), in a 37° C. water bath. Incubations with all compounds were initiated with the addition of microsomes. At selected time points (0, 15, 30 and 60 min), a single 100 μl aliquot was removed from each sample and mixed with 200 μl of chilled acetonitrile containing internal standard. Following brief vortexing and centrifugation, the samples were further diluted into a 96-well plate for subsequent LC-MS/MS analysis. All samples were assayed in duplicate.
# (§3) Experimental controls consisted of: a) incubation of all components except test article for 0 and 60 min, b) incubation of midazolam (positive control) at 10 μM for 0, 15, 30 and 60 min, and c) incubation of 1 and 10 μM test article and 10 μM midazolam with heat-inactivated microsomes (0.5 mg protein/ml) for 0 and 60 min. All controls were assayed in duplicate.
# (§4) Data from the metabolic stability assays were transferred to and processed in a Microsoft Excel spreadsheet. To determine metabolic stability, the percent remaining at each time point was calculated by dividing the peak area ratio of test article/internal standard at each time point by the peak area ratio at 0 min multiplied by 100.
# [2] = In vitro metabolic stability using human liver microsomes; conditions: for % remaining: at both 1 and 10 μM
# Protocol: The metabolic stability of 15 GABAA receptor ligands using human liver microsomes was studied. The test articles were incubated at two concentrations (1 and 10 μM) and aliquots (100 μl) were removed at various time points (0, 15, 30 and 60 minutes), and analyzed by LC-MS/MS.
# as §1
# Pooled human liver microsomes (Lot #38289, pool of 150 different male and female donor livers) were obtained from BD Biosciences Corporation (Woburn, Mass.). Microsomes were stored at ˜−135° C. until use.
# as §2, §3
# Samples were analyzed by LC-MS/MS in multiple reaction monitoring mode using positive-ion electrospray ionization. The details of the LC-MS/MS method can be provided upon request.
# as §4
SMILES,"Mean % Remaining vs T = 0 min, with HI (Heat Inactivated) Microsomes ([1]; 1 μM) [%]","Mean % Remaining vs T = 0 min, with HI (Heat Inactivated) Microsomes ([1]; 10 μM) [%]","Mean % Remaining vs T = 0 min, Human Liver Microsomes ([2]; 1 μM, 15 min) [%]","Mean % Remaining vs T = 0 min, Human Liver Microsomes ([2]; 1 μM, 30 min) [%]","Mean % Remaining vs T = 0 min, Human Liver Microsomes ([2]; 1 μM, 60 min)","Mean % Remaining vs T = 0 min, Human Liver Microsomes ([2]; 10 μM, 15 min) [%]","Mean % Remaining vs T = 0 min, Human Liver Microsomes ([2]; 10 μM, 30 min) [%]","Mean % Remaining vs T = 0 min, Human Liver Microsomes ([2]; 10 μM, 60 min) [%]",% remaining ([2]; 15 min),"Mean % Remaining vs T = 0 min, with HI (Heat Inactivated) Microsomes ([1]; 10 μM, positive control, data from three experiments) [%]","Mean % Remaining vs T = 0 min, Human Liver Microsomes ([2]; 10 μM, 15 min, positive control, data from three experiments) [%]","Mean % Remaining vs T = 0 min, Human Liver Microsomes ([2]; 10 μM, 30 min, positive control, data from three experiments) [%]","Mean % Remaining vs T = 0 min, Human Liver Microsomes ([2]; 10 μM, 60 min, positive control, data from three experiments) [%]","metabolism observed (in words) ([2]; active human liver microsomes, up to 60 min)"
C#Cc1ccc2c(c1)C(c1ccccn1)=NCc1c(C(=O)OCC)ncn1-2 [HZ-166],94.1,95.4,106,98.4,80.4%,104,90.7,76.3,–,–,–,–,–,–
C#Cc1ccc2c(c1)C(c1ccccc1F)=NCc1c(C(=O)OCC)ncn1-2 [JY-XHe-053],102,111,13.5,2.13,0.27%,20.0,3.60,0.56,less than 20%,–,–,–,–,–
Cc1ncc2n1-c1ccc(Cl)cc1C(c1ccccc1F)=NC2 [Midazolam],–,–,–,–,–,–,–,–,–,104 ± 1.2,36.9 ± 13.5,18.7 ± 7.3,4.2 ± 2.2,consistently metabolized
C#Cc1ccc2c(c1)C(c1ccccc1F)=N[C@H](C)c1c(C(=O)OCC)ncn1-2 [SH-053-2′F-RCH3],115,117,86.7,86.7,86.9%,97.9,105,105,–,–,–,–,–,–
C#Cc1ccc2c(c1)C(c1ccccc1F)=N[C@@H](C)c1c(C(=O)OCC)ncn1-2 [SH-053-2′F-SCH3],110,114,6.18,0.85,3.85^d %,11.7,1.72,0.20,less than 12%,–,–,–,–,–
C#Cc1ccc2c(c1)C(c1ccccc1)=NCc1c(C(=O)O)ncn1-2 [XHe-II-053 Acid],106,97.4,108,106,111%,95.6,95.0,95.0,–,–,–,–,–,–
